The values that follow are results of earlier work, collected in patent publication US9844530B1, “Ophthalmic solutions for glaucoma and conjunctivitis treatment” (Axim Biotechnologies, Inc., priority 2014, dated 2017).

The test system of the data set is various Staphylococcus aureus strains. As to conditions: background statement.

With `C=C(C)[C@@H]1CCC(C)=C[C@H]1c1c(O)cc(CCCCC)cc1O` [Cannabidiol], the minimum inhibitory concentration is 0.5 to 1 µg/mL.
